The assay concerns the target T1, DrTrxR (Deinococcus radiodurans, UniProt Q9RSY7).
T1 construct: gene DR_1982; residues 2-325, non-cleavable N-terminal His6 tag (MHHHHHH), pET-22b, expressed in E. coli BL21(DE3), Ni-NTA and size exclusion
Nature of the assay: NADPH consumption at […] nm, insulin reduction coupled through DrTrx1 or DrTrx2. Conditions: 0.1 mM NADPH, 0.1 uM DrTrxR, 0.1 uM DrTrx1 or 0.5 uM DrTrx2, bovine insulin, 50 mM Tris-HCl pH 7.4, room temperature. It counts as biochemical.

The values below come from article PMC8615215, “Structural and Biochemical Characterization of Thioredoxin-2 from Deinococcus radiodurans” (Antioxidants, 2021).

Structures are written as SMILES.

T1 sequence (Q9RSY7 entry or part of it): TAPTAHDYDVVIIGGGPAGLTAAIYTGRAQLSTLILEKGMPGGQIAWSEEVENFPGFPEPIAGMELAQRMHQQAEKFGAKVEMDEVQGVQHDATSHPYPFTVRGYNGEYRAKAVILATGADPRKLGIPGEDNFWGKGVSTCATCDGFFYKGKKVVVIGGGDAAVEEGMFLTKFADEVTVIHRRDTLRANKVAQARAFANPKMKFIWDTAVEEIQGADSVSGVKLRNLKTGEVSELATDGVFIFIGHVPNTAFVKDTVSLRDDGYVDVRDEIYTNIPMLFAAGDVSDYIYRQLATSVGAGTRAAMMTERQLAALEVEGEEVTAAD

Turning to `NC(=O)C1=CN([C@@H]2O[C@H](COP(=O)(O)OP(=O)(O)OC[C@H]3O[C@@H](n4cnc5c(N)ncnc54)[C@H](OP(=O)(O)O)[C@@H]3O)[C@@H](O)[C@H]2O)C=CC1` [NADPH], the “NADPH consumption at 340 nm, insulin reduction coupled through DrTrx1 or DrTrx2” value is “In the presence of DrTrxR/NADPH, both DrTrx1 and DrTrx2 caused a notable decrease”.
